± gives the uncertainty stated by the source.
Experiment: xn = mol fraction of the nth substance listed
Conditions: 100 kPa

CCCCCCCCCCCCCCCC[n+]1ccccc1.[Br-] + NCC(=O)NCC(=O)O + O
electrical conductivity [S/m]
Conditions	x1 = 8.993e-05, x2 = 0.001802	x1 = 8.996e-05, x2 = 0.001442	x1 = 8.999e-05, x2 = 0.001082	x1 = 9.003e-05, x2 = 0.0007216	x1 = 9.006e-05, x2 = 0.0003609	x1 = 9.009e-05, x2 = 0
298.15 K	0.023 ± 0.001	0.022 ± 0.001	0.021 ± 0.001	0.02 ± 0.001	0.019 ± 0.001	0.021 ± 0.001
303.15 K	0.024 ± 0.001	0.023 ± 0.001	0.022 ± 0.001	0.021 ± 0.001	0.02 ± 0.001	0.021 ± 0.001
308.15 K	0.025 ± 0.001	0.024 ± 0.001	0.023 ± 0.001	0.022 ± 0.001	0.021 ± 0.001	0.022 ± 0.001
313.15 K	0.026 ± 0.001	0.025 ± 0.001	0.024 ± 0.001	0.023 ± 0.001	0.022 ± 0.001	0.024 ± 0.001
